In ChEMBL document CHEMBL3861944 (Medchemcomm, 2016):

Key:
[1] = Cell cycle arrest in human AsPC1 cells assessed as accumulation at S phase at 50 uM after 24 hrs by flow cytometric method (reference value: 23 +/- 3%); type: functional, cell-based
[2] = Cell cycle arrest in human AsPC1 cells assessed as accumulation at G2/M phase at 75 uM after 24 hrs by flow cytometric method (reference value: 29 +/- 5%); type: functional, cell-based
[3] = test system: ASPC1; test: Induction of pro-differentiation of human AsPC1 cells assessed as CD44 expression at 1 uM after 3 days by immunostaining-based micro-capillary flow cytometric method (reference value: 87 +/- 1%); type: functional
[4] = Cell cycle arrest in human THP1 cells assessed as accumulation at G2/M phase at 1 uM after 24 hrs by flow cytometric method (reference value: 32 +/- 1%); type: functional, cell-based; conditions: THP-1
[5] = test system: ASPC1; test: Induction of pro-differentiation of human AsPC1 cells assessed as CD44 expression at 10 uM after 3 days by immunostaining-based micro-capillary flow cytometric method (reference value: 87 +/- 1%); type: functional
[6] = test system: THP-1; test: Pro-apoptotic activity in human THP1 cells assessed as late apoptotic cells at 30 uM after 24 hrs by annexin V/propidium iodide staining-based flow cytometric method (reference value: 0.4 +/- 0.1%); type: functional
[7] = Cell cycle arrest in human AsPC1 cells assessed as accumulation at G0/G1 phase at 1 uM after 24 hrs by flow cytometric method (reference value: 48 +/- 7%); type: functional, cell-based
[8] = test system: ASPC1; test: Pro-apoptotic activity in human AsPC1 cells assessed as early apoptotic cells at 30 uM after 24 hrs by annexin V/propidium iodide staining-based flow cytometric method (reference value: 0.8 +/- 0.1%); type: functional
[9] = test system: THP-1; test: Pro-apoptotic activity in human THP1 cells assessed as early apoptotic cells at 0.5 uM after 24 hrs by annexin V/propidium iodide staining-based flow cytometric method (reference value: 0.4 +/- 0.1%); type: functional
[10] = Cell cycle arrest in human THP1 cells assessed as accumulation at G0/G1 phase at 10 uM after 24 hrs by flow cytometric method (reference value: 51 +/- 6%); type: functional, cell-based; conditions: THP-1
[11] = Cell cycle arrest in human THP1 cells assessed as accumulation at S phase at 0.75 uM after 24 hrs by flow cytometric method (reference value: 16 +/- 2%); type: functional, cell-based; conditions: THP-1
[12] = test system: THP-1; test: Pro-apoptotic activity in human THP1 cells assessed as late apoptotic cells at 10 uM after 24 hrs by annexin V/propidium iodide staining-based flow cytometric method (reference value: 0.4 +/- 0.1%); type: functional
[13] = Cell cycle arrest in human THP1 cells assessed as accumulation at S phase after 24 hrs by flow cytometric method; type: functional, cell-based; conditions: THP-1
[14] = Cell cycle arrest in human AsPC1 cells assessed as accumulation at G0/G1 phase at 100 uM after 24 hrs by flow cytometric method (reference value: 48 +/- 7%); type: functional, cell-based
[15] = Cell cycle arrest in human AsPC1 cells assessed as accumulation at G2/M phase at 1 uM after 24 hrs by flow cytometric method (reference value: 29 +/- 5%); type: functional, cell-based
[16] = Cell cycle arrest in human THP1 cells assessed as accumulation at G2/M phase at 0.5 uM after 24 hrs by flow cytometric method (reference value: 32 +/- 1%); type: functional, cell-based; conditions: THP-1
[17] = Cell cycle arrest in human AsPC1 cells assessed as accumulation at G2/M phase at 10 uM after 24 hrs by flow cytometric method (reference value: 29 +/- 5%); type: functional, cell-based
[18] = Cell cycle arrest in human THP1 cells assessed as decrease in cell levels at G2/M phase after 24 hrs by flow cytometric method; type: functional, cell-based; conditions: THP-1
[19] = Cell cycle arrest in human AsPC1 cells assessed as accumulation at G0/G1 phase at 30 uM after 24 hrs by flow cytometric method (reference value: 48 +/- 7%); type: functional, cell-based
[20] = Cell cycle arrest in human AsPC1 cells assessed as accumulation at S phase at 10 uM after 24 hrs by flow cytometric method (reference value: 23 +/- 3%); type: functional, cell-based
[21] = test system: ASPC1; test: Pro-apoptotic activity in human AsPC1 cells assessed as late apoptotic cells at 50 uM after 24 hrs by annexin V/propidium iodide staining-based flow cytometric method (reference value: 0.8 +/- 0.1%); type: functional
[22] = Cell cycle arrest in human AsPC1 cells assessed as accumulation at S phase at 100 uM after 24 hrs by flow cytometric method (reference value: 23 +/- 3%); type: functional, cell-based
[23] = Cell cycle arrest in human THP1 cells assessed as accumulation at S phase at 3 uM after 24 hrs by flow cytometric method (reference value: 16 +/- 2%); type: functional, cell-based; conditions: THP-1
[24] = Cell cycle arrest in human THP1 cells assessed as accumulation at G2/M phase at 30 uM after 24 hrs by flow cytometric method (reference value: 32 +/- 1%); type: functional, cell-based; conditions: THP-1
[25] = Cell cycle arrest in human AsPC1 cells assessed as accumulation at G0/G1 phase at 50 uM after 24 hrs by flow cytometric method (reference value: 48 +/- 7%); type: functional, cell-based
[26] = test system: ASPC1; test: Pro-apoptotic activity in human AsPC1 cells assessed as necrotic cells at 1 uM after 24 hrs by annexin V/propidium iodide staining-based flow cytometric method (reference value: 2.1 +/- 0.4%); type: functional
[27] = test system: ASPC1; test: Pro-apoptotic activity in human AsPC1 cells assessed as necrotic cells at 30 uM after 24 hrs by annexin V/propidium iodide staining-based flow cytometric method (reference value: 2.1 +/- 0.4%); type: functional
[28] = test system: ASPC1; test: Pro-apoptotic activity in human AsPC1 cells assessed as early apoptotic cells at 50 uM after 24 hrs by annexin V/propidium iodide staining-based flow cytometric method (reference value: 0.8 +/- 0.1%); type: functional
[29] = test system: ASPC1; test: Pro-apoptotic activity in human AsPC1 cells assessed as necrotic cells at 10 uM after 24 hrs by annexin V/propidium iodide staining-based flow cytometric method (reference value: 2.1 +/- 0.4%); type: functional
[30] = Antioxidant activity assessed as DPPH free radical scavenging activity incubated for 30 mins in dark; type: functional
[31] = Cell cycle arrest in human THP1 cells assessed as accumulation at G0/G1 phase at 30 uM after 24 hrs by flow cytometric method (reference value: 51 +/- 6%); type: functional, cell-based; conditions: THP-1
[32] = Cell cycle arrest in human THP1 cells assessed as accumulation at G2/M phase at 3 uM after 24 hrs by flow cytometric method (reference value: 32 +/- 1%); type: functional, cell-based; conditions: THP-1
[33] = Cell cycle arrest in human THP1 cells assessed as accumulation at G0/G1 phase at 1 uM after 24 hrs by flow cytometric method (reference value: 51 +/- 6%); type: functional, cell-based; conditions: THP-1
[34] = Cell cycle arrest in human THP1 cells assessed as accumulation at G0/G1 phase at 0.5 uM after 24 hrs by flow cytometric method (reference value: 51 +/- 6%); type: functional, cell-based; conditions: THP-1
[35] = Cell cycle arrest in human AsPC1 cells assessed as accumulation at G2/M phase at 50 uM after 24 hrs by flow cytometric method (reference value: 29 +/- 5%); type: functional, cell-based
[36] = test system: ASPC1; test: Pro-apoptotic activity in human AsPC1 cells assessed as early apoptotic cells at 75 uM after 24 hrs by annexin V/propidium iodide staining-based flow cytometric method (reference value: 0.8 +/- 0.1%); type: functional

Work on `NC(=[Se])N/N=C/c1cccc2cccnc12` yielded an Activity [1] of 26%, an Activity [2] of 14.4% and an Activity [3] of 53%. It also gave an Activity [4] of 31%, an Activity [5] of 77% and an Activity [6] of 46%. The Activity [7] was 53.8%, the Activity [8] was 0% and the Activity [9] was 1.7%. It also gave an Activity [10] of 45%, an Activity [11] of 21% and an Activity [12] of 49%. The Activity [13] was “Dose-dependent effect”, the Activity [14] was 64.1% and the Activity [15] was 10.6%. For the same compound, the Activity [16] was 27%, the Activity [17] was 16.7% and the Activity [18] was “Dose-dependent effect”. It also gave an Activity [19] of 69.2%, an Activity [20] of 21.3% and an Activity [21] of 0.3%. For the same compound, the Activity [22] was 18.8%, the Activity [23] was 27% and the Activity [24] was 26%. For the same compound, the Activity [25] was 65.4%, the Activity [26] was 1.8% and the Activity [27] was 1.9%. It also gave an Activity [28] of 0.4%, an Activity [29] of 1.6% and an IC50 [30] of 12.5 µM. For the same compound, the Activity [31] was 43%, the Activity [32] was 30% and the Activity [33] was 43%. The Activity [34] was 50%, the Activity [35] was 8.6% and the Activity [36] was 0.6%.
